The source made the active and inactive calls.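 How the source made its calls: active means AC50 no more than ten times the top concentration tested, that is within one log above it; inconclusive means flat curve fit with activity between 30% and 70%, or invalid poor fit; inactive means AC50 beyond ten times the top tested dose.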

This assay relates to S. cerevisiae Mot1-301 ts growth rescue, BacTiter-Glo ATP luminescence. Description: growth rescue of Mot1-301 ts yeast, confirmation, SUMOylation pathway inhibitor project, whole organism, S. cerevisiae, Mot1-301 ts mutant, luminescence, dose retest (AID 463204).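 Further: growth at restrictive 38.5 degrees C of Mot1-301 OY566 strain; actives raise luminescence by restoring growth of the ts mutant at high temperature.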

Turning to `O=C(Cc1cccs1)Nc1nnc(-c2ccncc2)s1`, the AC50 was > 42 µM (inactive). The same measure for `CCN1CCN(CC(=O)N2N=CCC2c2ccccc2)CC1` (stereo not given): > 42 µM (inactive); for `Cc1nnc(SCC(=O)NCc2ccccc2Cl)[nH]c1=O`: > 42 µM (inactive). In the case of `CCCCOc1ccc(C(O)C(CN2CCOCC2)c2ccccc2)cc1` (stereo not given), the AC50 is > 42 µM (inactive). As for `CCS(=O)(=O)c1nc(S(=O)(=O)c2ccc(Cl)cc2)c(N2CCc3ccccc3C2)s1`, the figure is > 42 µM (inactive); as for `CN(C)CCNC(=O)c1c(O)c2c([nH]c1=O)CCCC2`, > 42 µM (inactive). As for `Cc1ccc(S(=O)(=O)N2c3ccc(S(N)(=O)=O)cc3CC2C)cc1` (stereo not given), the figure is > 42 µM (inactive). For the compound `COc1ccccc1N1CCN(C(=O)C2CCN(S(=O)(=O)c3ccc(C)cc3)CC2)CC1`, the AC50 was > 42 µM (inactive). As for `COc1ccc(OCC(=O)Nc2ccc(C)cc2)cc1`, the figure is > 42 µM (inactive); as for `CC(C)(C)c1ccc(C(=O)NCCC(=O)N2CCN(c3ncccn3)CC2)cc1`, > 42 µM (inactive).

For the compound `O=C(O)C1CCCN1C(=O)c1cncc(Br)c1` (stereo not given), the AC50 is > 42 µM (inactive). In the case of `COc1ccc(N2C(=O)CSC2c2ccc([N+](=O)[O-])cc2)cc1` (stereo not given), the AC50 is > 42 µM (inactive). The same measure for `C[C@]12CC[C@H]3C(=CCc4cc(O)ccc43)[C@@H]1CCC2=O`: > 42 µM (inactive); for `O=C1CC(c2c[nH]c3ccccc23)C(=O)N1c1ccccc1` (stereo not given): > 42 µM (inactive).

On to `COc1ccccc1C(=O)NCCNc1ccc([N+](=O)[O-])cc1Cl`, for which the AC50 is > 110 µM (inactive). The same measure for `CCS(=O)(=O)N1CCC(C(=O)N2CCc3ccccc3C2)CC1`: > 42 µM (inactive).

As to `CCOC(=O)CSc1nc2ccccc2c(=O)n1CC(C)C`, the AC50 is > 42 µM (inactive). On to `O=C(c1cnn2c(C(F)(F)F)cc(-c3ccco3)nc12)N1CCCc2ccccc21`, for which the AC50 was > 42 µM (inactive). As for `Cc1ccc(NC(=S)N2CCN(Cc3ccc4c(c3)OCO4)CC2)c(C)c1`, the AC50 was > 42 µM (inactive). For the compound `CN(CP(=O)(O)C(O)c1ccccc1)S(C)(=O)=O` (stereo not given), the AC50 is > 42 µM (inactive). As for `NC(=O)C1CCN(C2CC(=O)N(c3ccc(F)c(Cl)c3)C2=O)CC1` (stereo not given), the figure is 7.8 µM; as for `Nc1nnnn1CC(=O)N/N=C/c1cccs1`, > 42 µM (inactive). With `CCC1CCCCN1CCCNC(=O)C1CCC(CNS(=O)(=O)c2c(C)cc(C)cc2C)CC1` (stereo not given), the AC50 was > 42 µM (inactive).

On to `O=C(/C=C/c1cccc([N+](=O)[O-])c1)NCCSCc1ccc(Cl)cc1Cl`, for which the AC50 is > 42 µM (inactive). The same measure for `CC1(C)CC(=O)C(C(=O)c2ccccc2)C(=O)C1Cl` (stereo not given): > 42 µM (inactive); for `Cc1ccc(O)c(C(=O)CC(=O)c2cccc(F)c2)c1`: 20.7 µM; for `Cc1cc(C)cc(C(=O)Oc2cc(C)[nH]c(=O)c2[N+](=O)[O-])c1`: > 42 µM (inactive). `Nc1cc(=O)[nH]c(=O)n1CCc1ccccc1`: the AC50 is > 42 µM (inactive).

Turning to `CS(=O)(=O)N1CCC(Oc2ccccc2C(=O)N2CCNC(=O)C2)CC1`, the AC50 was > 42 µM (inactive).

Take `COc1ccc(C(=O)NCC(=O)Nc2ccccc2)cc1OC`: the AC50 was > 42 µM (inactive). In the case of `O=C(/C=C/N1CCOCC1)c1coc2ccccc12`, the AC50 was > 42 µM (inactive). With `O=C(CSc1nc2ncccc2[nH]1)NC1CCCCC1`, the AC50 was > 42 µM (inactive). As for `CCOC(=O)N1CCN(c2nnnn2-c2ccccc2)CC1`, the figure is > 42 µM (inactive); as for `O=C(CSc1nccc(=O)[nH]1)c1cc2ccccc2o1`, > 42 µM (inactive); as for `O=C(Cc1ccc(Cl)cc1Cl)OCC(=O)c1ccc[nH]1`, > 42 µM (inactive). The same measure for `Clc1ccc(N=c2ssnc2Cl)nc1`: 0.78 µM. The same measure for `CC[n+]1c(/C=C/N(C)c2ccccc2)n(-c2ccccc2)c2ccc(-c3nc4ccccc4s3)cc21`: 19.6 µM. In the case of `COc1cccc(/C=N/NC(=O)CCn2cnc3ccccc32)c1`, the AC50 is > 42 µM (inactive). As for `O=C(c1cc(-c2ccc(Cl)c(Cl)c2)on1)N1CCN(c2ccccc2)CC1`, the figure is > 42 µM (inactive); as for `Cc1cc(C)c2c(=O)[nH]cnc2n1`, > 42 µM (inactive). With `Cc1onc(-c2ccccc2Cl)c1C(=O)N1CCc2ccccc2C1`, the AC50 was 34 µM. The same measure for `OCC1(Cc2cccc(Cl)c2)CCCN(Cc2ccc(F)c(F)c2)C1` (stereo not given): > 42 µM (inactive); for `COC(=O)C1CN(C#N)N(c2ccc(Cl)cc2)C12c1ccccc1-c1ccccc12` (stereo not given): 0.74 µM; for `CCn1cc(C(=O)N2CCN(c3ccc(OC)cc3)CC2)c(=O)c2cc(S(=O)(=O)N3CCOCC3)ccc21`: > 42 µM (inactive). `O=c1c2ccccc2c2ccccc2c(=O)n1-c1ccccc1`: the AC50 was > 42 µM (inactive). For the compound `Cc1ccc(C(=O)O)cc1[N+](=O)[O-]`, the AC50 is > 42 µM (inactive).

`O=C(O)/C=C\C(=O)NC1CCCCC1`: the AC50 was > 42 µM (inactive). As for `COc1cc2c(cc1NC(=O)c1cccnc1)oc1ccccc12`, the figure is > 42 µM (inactive); as for `N#C/C(=C/c1ccc(N2CCCCC2)o1)C(=O)Nc1ccc(Cl)cc1`, > 42 µM (inactive).

Consider `COc1cc(CN2CCN(c3ncccn3)CC2)cc(OC)c1`, for which the AC50 is > 42 µM (inactive). The same measure for `c1ccc(OCCCc2nc(-c3cccnc3)no2)cc1`: > 42 µM (inactive).

Consider `Cn1c(Cn2nnc3ccccc32)nnc1SCC(=O)c1ccc(F)cc1`, for which the AC50 was > 42 µM (inactive). As for `CCc1cc2c(=O)c(-c3nc4ccccc4[nH]3)coc2c(CN2CCCCC2)c1O`, the AC50 was > 42 µM (inactive). The same measure for `Cc1ccc(/C=C/C(=O)O)cc1S(=O)(=O)N(CCO)CCO`: > 42 µM (inactive); for `O=C(COc1ncnc2c(Cl)cc(Cl)cc12)NCCC1=CCCCC1`: > 42 µM (inactive).

As to `O=C(OCc1ccccc1)c1cccc(-c2nnn(Cc3ccccc3)n2)c1`, the AC50 is > 42 µM (inactive).

On to `Cc1cccc(/C=N/NC(=O)Cc2cccs2)c1`, for which the AC50 was > 42 µM (inactive). Turning to `CC(C)c1ccc(C2C(C(=O)c3ccco3)=C(O)C(=O)N2CCN2CCOCC2)cc1` (stereo not given), the AC50 is > 42 µM (inactive). With `Cc1ccc(C(C(=O)NC2CCCCC2)N(CCC(C)C)C(=O)CNC(=O)c2ccco2)o1` (stereo not given), the AC50 is > 42 µM (inactive). Take `Cc1ccc(S(=O)(=O)CCC(=O)OCC(=O)N(C)C2CCS(=O)(=O)C2)cc1` (stereo not given): the AC50 is > 42 µM (inactive). As for `CN(C)c1oc(-c2ccccc2Cl)nc1S(=O)(=O)c1ccccc1`, the figure is > 42 µM (inactive); as for `COc1ccc(N2CC(C(=O)N3CCc4ccccc43)CC2=O)cc1` (stereo not given), > 42 µM (inactive).

As to `c1ccc(-c2nc(NCc3ccco3)c3ccccc3n2)nc1`, the AC50 is > 42 µM (inactive).

On to `O=C1c2ccccc2NC(c2ccccc2O)N1O` (stereo not given), for which the AC50 was > 42 µM (inactive). As for `Cc1ccc(S(=O)(=O)Oc2ccc(/C=C3\N=C(c4cccc(C)c4)OC3=O)cc2)cc1`, the figure is > 42 µM (inactive). For the compound `O=C(CN(CC1CCCO1)C(=O)CNS(=O)(=O)c1ccc(F)cc1)NCc1ccccc1` (stereo not given), the AC50 is > 42 µM (inactive). The same measure for `CC(=O)Nc1ccc(S(=O)(=O)N(C)CC(=O)Nc2ccc(Br)cc2F)cc1`: > 42 µM (inactive). On to `COc1ccccc1-c1nc2ccccc2nc1-c1ccccc1OC`, for which the AC50 is > 42 µM (inactive).

Consider `O=C1CCc2cc(S(=O)(=O)N3CCC(C(=O)NC4CCCC4)CC3)ccc2N1`, for which the AC50 was > 42 µM (inactive). The same measure for `O=C(Nc1nccs1)C1CCN(S(=O)(=O)c2ccc(Cl)c(C(F)(F)F)c2)CC1`: > 42 µM (inactive); for `Cc1ccc(C(C(=O)Nc2ccc3c(c2)OCO3)N(C)C(=O)Cc2c[nH]c3ccccc23)cc1` (stereo not given): > 42 µM (inactive). `CC[n+]1c(/C=C(\C)SC)sc2ccccc21`: the AC50 was 29.5 µM. The same measure for `COc1ccc(-c2nc(NC(=O)CCNC(=O)c3ccco3)sc2C)cc1`: > 42 µM (inactive); for `COc1cccc(CNC(=O)CCCn2nc(C)c3c(C)n(-c4ccccc4)nc3c2=O)c1`: > 42 µM (inactive).

As to `Cc1n[nH]c(C)c1S(=O)(=O)N(CC(=O)NC1CCCC1)c1ccc(C(C)C)cc1`, the AC50 is > 21 µM (inactive). The same measure for `Cc1cccc(OCCC(=O)Nc2ccc(F)c(F)c2)c1`: > 42 µM (inactive).

`O=C(C[n+]1ccc(C(=O)N/N=C/c2ccc(Cl)cc2Cl)cc1)c1ccccc1`: the AC50 was > 42 µM (inactive).

For `CCOc1ccc(C(=O)c2cccs2)cc1`, the AC50 is > 42 µM (inactive). As for `Cc1ccc(S(=O)(=O)NNC(=O)c2cc3cc4ccccc4nc3s2)cc1`, the figure is > 42 µM (inactive); as for `O=C(Nc1ccc2oc(-c3ccccc3F)nc2c1)c1ncn[nH]1`, > 42 µM (inactive); as for `Cc1ccc(NC(=O)Nc2cccc(C(F)(F)F)c2)nc1`, > 42 µM (inactive). Consider `CCCCN(C)C(=O)c1cc2c(Cl)nc3ccccc3c2s1`, for which the AC50 was > 42 µM (inactive). Take `Cc1ccc(S(=O)(=O)N2CCOCC2)cc1NC(=O)COC(=O)CNC(=O)c1ccccc1`: the AC50 was > 42 µM (inactive).

Consider `O=C1CSC(c2ccc(F)c(F)c2)N1c1ccccc1F` (stereo not given), for which the AC50 was > 42 µM (inactive). Turning to `CC1(C)NC(=O)N(CCCOc2ccccc2Br)C1=O`, the AC50 was > 42 µM (inactive). The same measure for `O=C(Cn1cnc2ccccc2c1=O)c1ccc(OC(F)F)cc1`: > 42 µM (inactive); for `CCNC(=S)NNC(=O)c1ccc(=O)n(Cc2ccccc2)c1`: > 42 µM (inactive); for `CCc1nc2ccc(C(=O)N3CCN(CC)CC3)cc2nc1CC`: > 42 µM (inactive). On to `O=C(CSc1ncccn1)c1ccccc1Br`, for which the AC50 was > 42 µM (inactive). Consider `O=C(NCCCn1ccnc1)c1ccc(Cl)cc1`, for which the AC50 was > 42 µM (inactive).
